How the values were obtained:
[1] = target: T1, IFN-γ (Homo sapiens, UniProt P01579); test: ELISA detection of IFN-γ after overnight cell-free incubation with BP; assay type: binding; conditions: overnight with BP 500 μg/ml
T1 sequence (P01579 24-161 limits assumed): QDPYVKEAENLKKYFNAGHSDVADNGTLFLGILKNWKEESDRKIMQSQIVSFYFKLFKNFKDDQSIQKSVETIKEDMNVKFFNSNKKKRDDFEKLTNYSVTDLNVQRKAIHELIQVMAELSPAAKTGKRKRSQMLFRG
Protocol: The generation of PBMC supernatants and RNA used for this method were prepared as follows. PBMC ([…]) were incubated in RPMI-1640 medium containing TCH (ICN) with or without PHA (Sigma, 2.5 μg/ml). At each time point, samples were centrifuged for 5 min at 400 g, the supernatants collected and analyzed of IFN-γ by ELISA (IDS, Boldon, UK).
Purified recombinant IFN-γ or cell-free supernatants from stimulated PBMC were incubated overnight with BP (500 μg/ml), then assayed by ELISA, Supernatant 1, PBMC stimulated for 20 hours with IL-2; supernatant 2, PBMC stimulated for 43 hours with IL-2; supernatant 3, PBMC stimulated for 43 hours with PHA.

[2] = target: T2, IL-4 (Homo sapiens, UniProt P05112); test: Western blot with anti-BP antibody: comparative study with IL-4; assay type: binding; conditions: IL-4 in place of IFN-γ; compared with IFN-γ
T2 sequence (P05112 25-153): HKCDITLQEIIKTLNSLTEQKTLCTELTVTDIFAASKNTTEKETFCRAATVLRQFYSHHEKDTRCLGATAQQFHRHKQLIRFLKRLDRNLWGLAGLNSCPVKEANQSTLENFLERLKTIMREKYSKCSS
Protocol: (§1) SDS-PAGE and Western Blotting techniques using for this method were performed as follows. Carrier-free recombinant human IFN-γ (PeproTech, London, UK) was made to 10 μg/ml and incubated overnight with or without BP (final concentrations 25, 5, 0.5 mg/ml). At the end of the incubation period, 5×loading buffer was added and 20 μl of each sample loaded onto SDS-polyacrylamide gels. The gels were then analyzed by Western blotting, using a rabbit polyclonal anti-BP antibody. A comparative study was conducted using IL-4 in place of IFN-γ.
(§2) Carrier-free recombinant human IFN-γ (PeproTech, London, UK) were made to 10 μg/ml and incubated overnight with or without Benzyl Penicillin (BP) (final concentrations: 25, 5, 0.5 mg/ml). At the end of the incubation period, 5×loading buffer was added and 20 μl of each sample loaded onto SDS-polyacrylamide gels. For all samples, aliquots were then analyzed by Western blotting, using a rabbit polyclonal anti-BP antibody. A comparative study was conducted using IL-4 in place of IFN-γ.

[3] = target: T3, IFN-γ (Homo sapiens, UniProt P01579); test: IFN-γ induction of MHC class II DR on peripheral blood monocytes after BP pre-incubation; assay type: cell-based; conditions: IFN-γ 1 μg/ml pre-incubated overnight with various concentrations of BP; HMC-1 pulsed, co-cultured with PBM
T3 sequence (P01579 24-166): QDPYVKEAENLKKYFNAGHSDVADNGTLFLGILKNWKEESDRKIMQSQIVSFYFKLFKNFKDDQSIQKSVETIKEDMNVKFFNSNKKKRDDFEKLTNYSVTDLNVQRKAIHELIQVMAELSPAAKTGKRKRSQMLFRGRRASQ
Protocol: Referring now to FIG. 2, there is shown a graph illustrating the results of a determination of whether the effect of conjugation or interaction of the substance, BP, with IFN-γ has an effect on IFN-γ activity. In summary, IFN-γ was tested for induction of MHC class II DR on human peripheral blood monocytes (PBM) as follows.
IFN-γ (1 μg/ml) was incubated overnight with various concentrations of BP. HMC-1 cells were pulsed with or without IFN-γ (10 ng/ml), BP, or BP-treated IFN-γ, for 30 min and washed 3 times in PBS. The cells were resuspended in IFS and co-cultured (2×10^5) overnight with PBM (2×10^5) in a total volume of 200 μl in polypropylene tubes (Falcon). Six tubes were set up for each HMC-1 treatment.

[4] = target: T3, IFN-γ; test: IFN-γ mediated up-regulation of MCP-1 mRNA in A549 cells (RNase protection); assay type: cell-based
[5] = target: T3, IFN-γ; test: Western blot with anti-BP antibody: conjugation of BP to IFN-γ; assay type: binding; set-up: purchased PeproTech, London, UK; conditions: IFN-γ 10 μg/ml overnight with BP 25, 5, 0.5 mg/ml
Protocol: as §1
Referring now to FIG. 1, there is shown a Western blot illustrating the conjugation of BP to or interaction of BP to IFN-γ. FIG. 1 illustrates a method by which conjugation or interaction of a substance with a cytokine, namely IFN-γ, can be determined.
as §2

SMILES: CC1(C)S[C@@H]2[C@H](NC(=O)Cc3ccccc3)C(=O)N2[C@H]1C(=O)O [BP, benzyl penicillin]
- IFN-γ (pg/ml) detected with BP ([1]; PBMC supernatant 1 (IL-2, 20 hours), without BP 152): 0 pg/mL
- IFN-γ (pg/ml) detected with BP ([1]; PBMC supernatant 2 (IL-2, 43 hours), without BP 389): 0 pg/mL
- IFN-γ (pg/ml) detected with BP ([1]; PBMC supernatant 3 (PHA, 43 hours), without BP >400): 92 pg/mL
- IFN-γ (pg/ml) detected with BP ([1]; recombinant IFN-γ 200 pg/ml, without BP 192): 13 pg/mL
- IFN-γ (pg/ml) detected with BP ([1]; recombinant IFN-γ 1000 pg/ml, without BP 1015): 70 pg/mL
- conjugation to IL-4 [2]: conjugates to IL-4, though to a substantially lesser degree than to IFN-γ
- IFN-γ bioactivity (increase in DR median fluorescence on PBM) [3]: reduced its bioactivity in a concentration dependent manner
- induction of MCP-1 mRNA by IFN-γ ([4]; BP mixed with IFN-γ immediately before addition to A549 cells, lanes 10-12): less marked inhibiting effect
- induction of MCP-1 mRNA by IFN-γ ([4]; IFN-γ pre-incubated overnight with BP (20 or 10 mg/ml), A549 cells, 2 hours, lanes 4-6): inhibited induction of MCP-1 mRNA
- conjugation to IFN-γ [5]: conjugates to IFN-γ

Source: US20030096311A1, “Screening method for compounds” (priority 2000, published 2003)
